# Test results as given in ChEMBL document CHEMBL1151244, “Synthesis of A-seco derivatives of betulinic acid with cytotoxic activity” (J Nat Prod, 2004).
# Experiments:
# Assay type in all cases: functional, cell-based
# PC-3 = assay: Cytotoxicity against human PC3 cells after 72 hrs by MTT assay; conditions: PC-3, 72 h
# K562 [1] = assay: Cytotoxicity against paclitaxel-resistant human K562 cells after 72 hrs by MTT assay; conditions: K562, 72 h
# HT-29 = assay: Cytotoxicity against human HT-29 cells after 72 hrs by MTT assay; conditions: HT-29, 72 h
# K562 [2] = assay: Cytotoxicity against human K562 cells after 72 hrs by MTT assay; conditions: K562, 72 h
# CCRF-CEM = assay: Cytotoxicity against human CEM cells after 72 hrs by MTT assay
# A549 = assay: Cytotoxicity against human A549 cells after 72 hrs by MTT assay; conditions: A549, 72 h
# DU-145 = assay: Cytotoxicity against human DU145 cells after 72 hrs by MTT assay; conditions: DU-145, 72 h
# MCF7 = assay: Cytotoxicity against human MCF7 cells after 72 hrs by MTT assay; conditions: MCF7, 72 h
# SK-MEL-2 = assay: Cytotoxicity against human SK-MEL-2 cells after 72 hrs by MTT assay; conditions: SK-MEL-2, 72 h
Structure (SMILES),IC50 (PC-3) [µM],IC50 (K562 [1]) [µM],IC50 (HT-29) [µM],IC50 (K562 [2]) [µM],IC50 (CCRF-CEM) [µM],IC50 (A549) [µM],IC50 (DU-145) [µM],IC50 (MCF7) [µM],IC50 (SK-MEL-2) [µM]
C=C(C)[C@@H]1CC[C@]2(C(=O)OC)CC[C@]3(C)[C@H](CC[C@@H]4[C@@]5(C)C=C(OC(C)=O)C(=O)C(C)(C)[C@@H]5CC[C@]43C)[C@@H]12,98,25,46,60,91,–,–,–,–
C=C(C)[C@@H]1CC[C@]2(C(=O)OC)CC[C@]3(C)[C@H](CC[C@@H]4[C@@]5(C)C=C(OC)C(=O)C(C)(C)[C@@H]5CC[C@]43C)[C@@H]12,20,10,19,11,5,–,–,–,–
C=C(C)[C@@H]1CC[C@]2(C(=O)O)CC[C@]3(C)[C@H](CC[C@@H]4[C@@](C)(CC(=O)O)[C@H](C(C)(C)C(=O)O)CC[C@]43C)[C@@H]12,169,250,219,145,250,–,–,–,–
C=C(C)[C@@H]1CC[C@]2(CO)CC[C@]3(C)[C@H](CC[C@@H]4[C@@](C)(CCO)[C@H](C(C)(C)CO)CC[C@]43C)[C@@H]12,49,11,11,9,20,–,–,–,–
C=C(C)[C@@H]1CC[C@]2(C(=O)OC)CC[C@]3(C)[C@H](CC[C@@H]4[C@@]5(C)C=C(O)C(=O)C(C)(C)[C@@H]5CC[C@]43C)[C@@H]12,10,8,6,8,23,11,9,6,11
C=C(C)[C@@H]1CC[C@]2(C(=O)OC)CC[C@]3(C)[C@H](CC[C@@H]4[C@@]5(C)CCC(=O)C(C)(C)[C@@H]5CC[C@]43C)[C@@H]12 [METHYL BETULONATE],250,250,250,239,–,–,–,–,–
C=C(C)[C@@H]1CC[C@]2(C(=O)OC(=O)[C@]34CC[C@@H](C(=C)C)[C@@H]3[C@H]3CC[C@@H]5[C@@]6(C)CC[C@H](OC(C)=O)C(C)(C)[C@@H]6CC[C@@]5(C)[C@]3(C)CC4)CC[C@]3(C)[C@H](CC[C@@H]4[C@@]5(C)CC[C@H](OC(C)=O)C(C)(C)[C@@H]5CC[C@]43C)[C@@H]12,187,242,173,104,240,–,–,–,–
C=C(C)[C@@H]1CC[C@]2(C(=O)O)CC[C@]3(C)[C@H](CC[C@@H]4[C@@]5(C)CC[C@H](OC(C)=O)C(C)(C)[C@@H]5CC[C@]43C)[C@@H]12,17,19,24,18,200,–,–,–,–
C=C(C)[C@@H]1CC[C@]2(C(=O)OC(C)=O)CC[C@]3(C)[C@H](CC[C@@H]4[C@@]5(C)CC[C@H](OC(C)=O)C(C)(C)[C@@H]5CC[C@]43C)[C@@H]12,93,108,110,88,22,–,–,–,–
C=C(C)[C@@H]1CC[C@]2(C(=O)OC)CC[C@]3(C)[C@H](CC[C@@H]4[C@@](C)(CC(=O)OC)[C@H](C(C)(C)C(=O)OC)CC[C@]43C)[C@@H]12,245,76,99,104,250,–,–,–,–
C=C(C)[C@@H]1CC[C@]2(C(=O)OC)CC[C@]3(C)[C@H](CC[C@@H]4[C@@]5(C)CC(=O)OC(=O)C(C)(C)[C@@H]5CC[C@]43C)[C@@H]12,89,12,12,29,7,–,–,–,–
C=C(C)[C@@H]1CC[C@]2(C(=O)OC)CC[C@]3(C)[C@H](CC[C@@H]4[C@@]5(C)CC[C@H](OC(C)=O)C(C)(C)[C@@H]5CC[C@]43C)[C@@H]12,250,250,250,250,16,–,–,–,–
C=C(C)[C@@H]1CC[C@]2(C(=O)OC)CC[C@]3(C)[C@H](CC[C@@H]4[C@@]5(C)[C@@H](O)OC(=O)C(C)(C)[C@@H]5CC[C@]43C)[C@@H]12,116,85,65,119,250,–,–,–,–
C=C(C)[C@@H]1CC[C@]2(C(=O)O)CC[C@]3(C)[C@H](CC[C@@H]4[C@@]5(C)CC(=O)OC(=O)C(C)(C)[C@@H]5CC[C@]43C)[C@@H]12,–,–,–,–,101,–,–,–,–
C=C(C)[C@@H]1CC[C@]2(C(=O)O)CC[C@]3(C)[C@H](CC[C@@H]4[C@@]5(C)CCC(=O)C(C)(C)[C@@H]5CC[C@]43C)[C@@H]12 [BETUNOLIC ACID],–,17,–,–,17,–,36,29,–
C=C(C)[C@@H]1CC[C@]2(C(=O)O)CC[C@]3(C)[C@H](CC[C@@H]4[C@@]5(C)[C@@H](O)OC(=O)C(C)(C)[C@@H]5CC[C@]43C)[C@@H]12,79,81,58,81,96,–,–,–,–
C=C(C)[C@@H]1CC[C@]2(C(=O)OC(C)=O)CC[C@]3(C)[C@H](CC[C@@H]4[C@@]5(C)CC(=O)OC(=O)C(C)(C)[C@@H]5CC[C@]43C)[C@@H]12,–,–,–,–,6,–,–,–,–
C=C(C)[C@@H]1CC[C@]2(C(=O)O)CC[C@]3(C)[C@H](CC[C@@H]4[C@@]5(C)C=C(OC(C)=O)C(=O)C(C)(C)[C@@H]5CC[C@]43C)[C@@H]12,11,16,7,5,20,11,18,17,24
C=C(C)[C@@H]1CC[C@]2(COC(C)=O)CC[C@]3(C)[C@H](CC[C@@H]4[C@@](C)(CCOC(C)=O)[C@H](C(C)(C)COC(C)=O)CC[C@]43C)[C@@H]12,–,–,–,–,250,–,–,–,–
C=C(C)[C@@H]1CC[C@]2(C(=O)OC)CC[C@]3(C)[C@H](CC[C@@H]4[C@@](C)(CC(=O)O)[C@H](C(C)(C)C(=O)O)CC[C@]43C)[C@@H]12,63,75,88,77,113,–,–,–,–
C=C(C)[C@@H]1CC[C@]2(C(=O)O)CC[C@]3(C)[C@H](CC[C@@H]4[C@@]5(C)C=C(O)C(=O)C(C)(C)[C@@H]5CC[C@]43C)[C@@H]12,10,11,6,6,4,10,23,14,23
C=C(C)[C@@H]1CC[C@]2(C(=O)OC)CC[C@]3(C)[C@H](CC[C@@H]4[C@@]5(C)CC[C@H](O)C(C)(C)[C@@H]5CC[C@]43C)[C@@H]12 [METHYL BETULINATE],109,65,61,71,150,–,–,–,–
C=C(C)[C@@H]1CC[C@]2(C(=O)O)CC[C@]3(C)[C@H](CC[C@@H]4[C@@]5(C)CC[C@H](O)C(C)(C)[C@@H]5CC[C@]43C)[C@@H]12 [BETULINIC ACID],91,112,89,56,27,146,196,143,21
